Measurements published in patent publication US20260216170A1, “TETRAHYDROISOQUINOLINE HETEROBIFUNCTIONAL BCL-XL DEGRADERS” (Treeline Biosciences, Inc., priority 2023, published 2026).

Target: T1, Human BCL-XL protein (N-terminal HiBiT tagged BCL-XL expressed in HT1080 cells) (Homo sapiens, UniProt Q07817)
T1 construct: expressed in transfected cells; host or cells: HT-1080 (ATCC CCL-121), stably transduced with lentivirus pLV-UBC-N-HiBiT-BCL-XL-PGK-puro and selected with puromycin
Experiment: HiBiT Based Degradation Assay
Format: cell-based
Settings: 24 hours incubation; for DC50: BCL-XL degradation, HT1080 cells expressing N-HiBiT-BCL-XL, normalized with DMSO control, geometric mean for multiple data points, read-out: EC50 (24 h); for Ymin (24 h): bottom of BCL-XL degradation curve (remaining HiBiT-BCL-XL signal vs DMSO control), HT1080 cells
How it was run: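 BCL-XL degradation was read as Nano-Glo HiBiT lytic luminescence relative to DMSO after a 24 h compound treatment of HT1080 cells carrying stably integrated N-HiBiT-BCL-XL. EC50 values come from four-parameter logistic curves, with the hook-curve minimum fixed as bottom, and are geometric means where tested repeatedly.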

T1 sequence (Q07817 whole entry): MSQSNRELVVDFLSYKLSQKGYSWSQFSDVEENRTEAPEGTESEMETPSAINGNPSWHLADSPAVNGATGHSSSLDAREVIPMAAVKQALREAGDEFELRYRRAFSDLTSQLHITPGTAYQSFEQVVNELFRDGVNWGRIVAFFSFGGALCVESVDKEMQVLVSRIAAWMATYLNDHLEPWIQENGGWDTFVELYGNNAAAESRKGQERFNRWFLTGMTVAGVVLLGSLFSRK

Row | DC50 | Ymin (24 h) | Structure (SMILES)
1 | 10 to 100 nM | A (Ymin < 30%) | C[C@H]1C[C@@H](CCCOc2ccc(-c3ccc(N4CCc5cccc(C(=O)Nc6nc7ccccc7s6)c5C4)nc3C(=O)O)c(C(F)(F)F)c2)CCN1CC(=O)Nc1ccc2c(C3CCC(=O)NC3=O)nn(C)c2c1 (stereo partly drawn) [Compound 209a, 6-(8-(benzo[d]thiazol-2-ylcarbamoyl)-3,4-dihydroisoquinolin-2(1H)-yl)-3-(4-(3-((2S,4S)-1-(2-((3-(2,6-dioxopiperidin-3-yl)-1-methyl-1H-indazol-6-yl)amino)-2-oxoethyl)-2-methylpiperidin-4-yl)propoxy)-2-(trifluoromethyl)phenyl)picolinic acid]
2 | 10 to 100 nM | B (30% ≤ Ymin < 50%) | C[C@H]1C[C@H](CCCOc2ccc(-c3ccc(N4CCc5cccc(C(=O)Nc6nc7ccccc7s6)c5C4)nc3C(=O)O)c(C(F)(F)F)c2)CCN1CC(=O)Nc1ccc2c(C3CCC(=O)NC3=O)nn(C)c2c1 (some centres unmarked) [Compound 209b]
3 | < 10 nM | A (Ymin < 30%) | C[C@@H]1C[C@H](CCCOc2ccc(-c3ccc(N4CCc5cccc(C(=O)Nc6nc7ccccc7s6)c5C4)nc3C(=O)O)c(C(F)(F)F)c2)CCN1CC(=O)Nc1ccc2c(C3CCC(=O)NC3=O)nn(C)c2c1 (some centres unmarked) [Compound 209c]
4 | < 10 nM | B (30% ≤ Ymin < 50%) | C[C@@H]1C[C@@H](CCCOc2ccc(-c3ccc(N4CCc5cccc(C(=O)Nc6nc7ccccc7s6)c5C4)nc3C(=O)O)c(C(F)(F)F)c2)CCN1CC(=O)Nc1ccc2c(C3CCC(=O)NC3=O)nn(C)c2c1 (some centres unmarked) [Compound 209d]
5 | 10 to 100 nM | A (Ymin < 30%) | Cc1cc(OCCC[C@@H]2CCN(CC(=O)Nc3ccc4c(C5CCC(=O)NC5=O)nn(C)c4c3)[C@@H](C)C2)ccc1-c1ccc(N2CCc3cccc(C(=O)Nc4nc5ccccc5s4)c3C2)nc1C(=O)O (some centres unmarked) [Compound 210a]
6 | 10 to 100 nM | A (Ymin < 30%) | COc1c(NC(=O)CN2CC[C@H](CCCOc3ccc(-c4ccc(N5CCc6cccc(C(=O)Nc7nc8ccccc8s7)c6C5)nc4C(=O)O)c(C)c3)C[C@@H]2C)ccc2c(C3CCC(=O)NC3=O)nn(C)c12 (some centres unmarked) [Compound 210b]
7 | < 10 nM | A (Ymin < 30%) | COc1c(NC(=O)CN2CC[C@H](CCCOc3ccc(-c4ccc(N5CCc6cccc(C(=O)Nc7nc8ccccc8s7)c6C5)nc4C(=O)O)c(C)c3)C[C@H]2C)ccc2c(C3CCC(=O)NC3=O)nn(C)c12 (some centres unmarked) [Compound 210c]
8 | 10 to 100 nM | A (Ymin < 30%) | COc1c(NC(=O)CN2CC[C@@H](CCCOc3ccc(-c4ccc(N5CCc6cccc(C(=O)Nc7nc8ccccc8s7)c6C5)nc4C(=O)O)c(C)c3)C[C@H]2C)ccc2c(C3CCC(=O)NC3=O)nn(C)c12 (some centres unmarked) [Compound 210d]
9 | 10 to 100 nM | C (50% ≤ Ymin < 70%) | Cn1nc(C2CCC(=O)NC2=O)c2ccc(NC(=O)CN3CCC(CCCOc4cccc(-c5ccc(N6CCc7cccc(C(=O)Nc8nc9ccccc9s8)c7C6)nc5C(=O)O)c4F)CC3)c(F)c21 (centres unmarked) [Compound 211]
10 | 10 to 100 nM | B (30% ≤ Ymin < 50%) | Cn1nc(C2CCC(=O)NC2=O)c2ccc(NC(=O)CN3CCC(CCCOc4ccc(-c5ccc(N6CCc7cccc(C(=O)Nc8nc9ccccc9s8)c7C6)nc5C(=O)O)c(F)c4)CC3)c(F)c21 (centres unmarked) [Compound 212, 6-(8-(benzo[d]thiazol-2-ylcarbamoyl)-3,4-dihydroisoquinolin-2(1H)-yl)-3-(4-(3-(1-(2-((3-(2,6-dioxopiperidin-3-yl)-7-fluoro-1-methyl-1H-indazol-6-yl)amino)-2-oxoethyl)piperidin-4-yl)propoxy)-2-fluorophenyl)picolinic acid]
11 | < 10 nM | A (Ymin < 30%) | Cc1cc(OC2CC3(CCN(CC(=O)Nc4ccc5c(C6CCC(=O)NC6=O)nn(C)c5n4)CC3)C2)ccc1-c1ccc(N2CCc3ccnc(C(=O)Nc4nc5ccccc5s4)c3C2)nc1C(=O)O (centres unmarked) [Compound 213]
12 | < 10 nM | B (30% ≤ Ymin < 50%) | Cn1nc(C2CCC(=O)NC2=O)c2ccc(NC(=O)CN3CCC4(CC3)CC(Oc3cccc(-c5ccc(N6CCc7ccnc(C(=O)Nc8nc9ccccc9s8)c7C6)nc5C(=O)O)c3C(F)(F)F)C4)c(F)c21 (centres unmarked) [Compound 214]
13 | 10 to 100 nM | B (30% ≤ Ymin < 50%) | C[C@H]1C[C@H](CCCOc2cccc(-c3ccc(N4CCc5cccc(C(=O)Nc6nc7ccccc7s6)c5C4)nc3C(=O)O)c2C(F)(F)F)CCN1CC(=O)Nc1ccc2c(C3CCC(=O)NC3=O)nn(C)c2c1 (some centres unmarked) [Compound 215a]
14 | 10 to 100 nM | B (30% ≤ Ymin < 50%) | C[C@H]1C[C@@H](CCCOc2cccc(-c3ccc(N4CCc5cccc(C(=O)Nc6nc7ccccc7s6)c5C4)nc3C(=O)O)c2C(F)(F)F)CCN1CC(=O)Nc1ccc2c(C3CCC(=O)NC3=O)nn(C)c2c1 (some centres unmarked) [Compound 215b]
15 | 10 to 100 nM | B (30% ≤ Ymin < 50%) | C[C@@H]1C[C@@H](CCCOc2cccc(-c3ccc(N4CCc5cccc(C(=O)Nc6nc7ccccc7s6)c5C4)nc3C(=O)O)c2C(F)(F)F)CCN1CC(=O)Nc1ccc2c(C3CCC(=O)NC3=O)nn(C)c2c1 (some centres unmarked) [Compound 215c]
16 | 10 to 100 nM | B (30% ≤ Ymin < 50%) | C[C@@H]1CC(CCCOc2cccc(-c3ccc(N4CCc5cccc(C(=O)Nc6nc7ccccc7s6)c5C4)nc3C(=O)O)c2C(F)(F)F)CCN1CC(=O)Nc1ccc2c(C3CCC(=O)NC3=O)nn(C)c2c1 (some centres unmarked) [Compound 215d]
17 | < 10 nM | B (30% ≤ Ymin < 50%) | COc1c(NC(=O)CN2CC[C@@H](CCCOc3cccc(-c4ccc(N5CCc6ccnc(C(=O)Nc7nc8ccccc8s7)c6C5)nc4C(=O)O)c3C)C[C@@H]2C)ccc2c(C3CCC(=O)NC3=O)nn(C)c12 (some centres unmarked) [Compound 216b]
18 | 10 to 100 nM | B (30% ≤ Ymin < 50%) | Cc1c(OCCC[C@H]2CCN(CC(=O)Nc3ccc4c(C5CCC(=O)NC5=O)nn(C)c4c3)[C@H](C)C2)cccc1-c1ccc(N2CCc3ccnc(C(=O)Nc4nc5ccccc5s4)c3C2)nc1C(=O)O (some centres unmarked) [Compound 216c]
19 | 10 to 100 nM | B (30% ≤ Ymin < 50%) | Cc1c(OCCC[C@@H]2CCN(CC(=O)Nc3ccc4c(C5CCC(=O)NC5=O)nn(C)c4c3)[C@H](C)C2)cccc1-c1ccc(N2CCc3ccnc(C(=O)Nc4nc5ccccc5s4)c3C2)nc1C(=O)O (stereo partly drawn) [Compound 216d, 6-(8-(benzo[d]thiazol-2-ylcarbamoyl)-3,4-dihydro-2,7-naphthyridin-2(1H)-yl)-3-(3-(3-((2R,4R)-1-(2-((3-(2,6-dioxopiperidin-3-yl)-1-methyl-1H-indazol-6-yl)amino)-2-oxoethyl)-2-methylpiperidin-4-yl)propoxy)-2-methylphenyl)picolinic acid]
20 | < 10 nM | B (30% ≤ Ymin < 50%) | Cc1c(NCCCC2CCN(CC(=O)Nc3ccc4c(C5CCC(=O)NC5=O)nn(C)c4c3)CC2)cccc1-c1ccc(N2CCc3cccc(C(=O)Nc4nc5ccccc5s4)c3C2)nc1C(=O)O (centres unmarked) [Compound 217]
21 | < 10 nM | A (Ymin < 30%) | Cc1cc(NCCCC2CCN(CC(=O)Nc3ccc4c(C5CCC(=O)NC5=O)nn(C)c4c3)CC2)ccc1-c1ccc(N2CCc3cccc(C(=O)Nc4nc5ccccc5s4)c3C2)nc1C(=O)O (centres unmarked) [Compound 218]
22 | < 10 nM | A (Ymin < 30%) | Cc1cc(OCCC[C@@H]2CCN(CC(=O)Nc3ccc4c(C5CCC(=O)NC5=O)nn(C)c4c3)[C@@H](C)C2)ccc1-c1ccc(N2CCc3ccnc(C(=O)Nc4nc5ccccc5s4)c3C2)nc1C(=O)O (some centres unmarked) [Compound 219a]
